How the values were obtained:
Malassezia furfur = assay: Challenge test (Ph.Eur. 5.1.3), germ count over time, Malassezia furfur; type: cell-based; conditions: for total number of microorganisms (linear scale) / total number of microorganisms (log-scale): 1.0% in water
Description: The challenge testing procedure consists in challenging a non-contaminated antimicrobial product according to the invention with a prescribed inoculum of suitable microorganisms and storing the inoculated product at a prescribed temperature, e.g. room temperature. The number of organisms surviving in the test products is determined at specified intervals of time.
According to the description given in the European pharmacopea (Ph.Eur.5 Ausgabe, Grundwerk 2005, §5.1.3), the challenge tests are done following the procedure given thereafter.
Production of the Inoculum
A fresh stock culture of the specific micro-organsisms is inoculated on the surface of Agar medium B for bacteria and on the surface of Agar medium C for fungi. The bacteria culture will be incubated until sufficient sporulation (18-24h at 30-35° C.) In order to harvest the bacteria, the surface of the Agar media is washed out with a sterile solution containing sodium chloride (9 g/l) and poured into an adequate vessel. The concentration of germs in the suspension will be adjusted with the same solution to a concentration closed to 10^8 micro-organism/ml. Immediately after that action, a sample of this suspension is taken and the germ concentration in CFU/ml will be measured thanks to the method of membran filtration or counting on Agar plate. This value serves determining the value of the inoculum. The suspension must be used immediately.
Method of Determination of Germ Count
In order to determine the number of micro-organisms in the inoculated preparation (containing also the antimicrobial product according to invention), the same Agar medium as for the preparation of the inoculum will be used.
The aqueous suspension/solution containing 1% of the used ionic liquids (=verum) is inoculated with a suspension of the tests micro-organisms (Malassezia furfur) in such a way that a concentration from 10^5 to 10^6 microorganism/ml of the preparation is reached. The inoculated volume should not be above 1% v/v of the overall test solution. The suspension will be mixed in order to get a good homogenisation.
Water alone (=placebo) is treated in the same way. Antifungicidial activity of the verum will be detected once the survival rate of a microorganism for the verum is significantely lower than for the placebo.
The inoculated preparation is stored away from the daylight at 20-25° C. In order to begin the test, 1 g or 1 ml samples from the tests preparation (containing the inoculated micro-organsisms and the antimicrobial product according to the invention) will be taken at different intervals of time (in our case , 0.2 min, 5 min, 30 min, 1 h, 3 h, 6 h, 24 h) and the number of microorganisms will be measured using the Agar plate or the membrane filtration method. It is important to make sure that any remaining antimicrobial activity to be eliminated by dilution, filtration or specific inactivation.

[1] = test system: Staphylococcus epidermidis; assay: Challenge test (Ph.Eur. 5.1.3), germ count over time, Staphylococcus epidermidis; type: cell-based; conditions: 1.0% in water
[2] = Malassezia furfur, incubation 0 h
[3] = Malassezia furfur, incubation 1 h
[4] = Malassezia furfur, incubation 3 h
[5] = Malassezia furfur, incubation 6 h
[6] = Malassezia furfur, incubation 24 h

SMILES: CC[N+](C)(C)CCOC [compound 1136, N-ethyl-N,N-dimethyl-2-methoxyethylammonium propionate]
- antifungicidial / microbicidal activity against Malassezia furfur (in words) (Malassezia furfur; Malassezia furfur): unique antifungicidial activity
- total number of microorganisms (linear scale) (Malassezia furfur; [2]): 45000
- total number of microorganisms (log-scale) (Malassezia furfur; [2]): 4.7
- total number of microorganisms (linear scale) (Malassezia furfur; [3]): 41000
- total number of microorganisms (log-scale) (Malassezia furfur; [3]): 4.6
- total number of microorganisms (linear scale) (Malassezia furfur; [4]): 36000
- total number of microorganisms (log-scale) (Malassezia furfur; [4]): 4.6
- total number of microorganisms (linear scale) (Malassezia furfur; [5]): 33000
- total number of microorganisms (log-scale) (Malassezia furfur; [5]): 4.5
- total number of microorganisms (linear scale) (Malassezia furfur; [6]): 100
- total number of microorganisms (log-scale) (Malassezia furfur; [6]): 2.0
- selectivity of growth inhibition: Malassezia furfur versus desired skin microorganisms (e.g. Staphylococcus epidermidis) (Malassezia furfur; in words): selectively inhibit the growth of the undesired microorganism Malassezia furfur
- total number of microorganisms (linear scale) ([1]; incubation 0 h): 210000
- total number of microorganisms (log-scale) ([1]; incubation 0 h): 5.3
- total number of microorganisms (linear scale) ([1]; incubation 1 h): 160000
- total number of microorganisms (log-scale) ([1]; incubation 1 h): 5.2
- total number of microorganisms (linear scale) ([1]; incubation 3 h): 180000
- total number of microorganisms (log-scale) ([1]; incubation 3 h): 5.3
- total number of microorganisms (linear scale) ([1]; incubation 6 h): 170000
- total number of microorganisms (log-scale) ([1]; incubation 6 h): 5.2
- total number of microorganisms (linear scale) ([1]; incubation 24 h): 22000
- total number of microorganisms (log-scale) ([1]; incubation 24 h): 4.3
